The IC50 is the point on the concentration scale where inhibition reaches its midpoint.

Some results are limits rather than exact numbers.

Our source for the IC50 and GI50 values is patent publication US20230148005A1, “MACROCYCLIC COMPOUNDS AND USES THEREOF” (THESEUS PHARMACEUTICALS, INC., priority 2020, published 2023).

The target in test [1] is EGFR^L858R (Homo sapiens, UniProt P00533, L858R). In words: in vitro kinase assay (HTRF KinEASE-TK kit), L. It counts as biochemical. Particulars: kinase inhibition. An excerpt: (§1) Assays using an in vitro kinase assay kit (HTRF KinEASE-TK kit) can be used to study the inhibitory activity of compounds described herein with respect to EGFR mutants such as EGFR^L858R, EGFR^L58R/T790M, and EGFR^L858R/T790M/C^797S.
EGFR^L858R, sequence (P00533 25-1210 L858R): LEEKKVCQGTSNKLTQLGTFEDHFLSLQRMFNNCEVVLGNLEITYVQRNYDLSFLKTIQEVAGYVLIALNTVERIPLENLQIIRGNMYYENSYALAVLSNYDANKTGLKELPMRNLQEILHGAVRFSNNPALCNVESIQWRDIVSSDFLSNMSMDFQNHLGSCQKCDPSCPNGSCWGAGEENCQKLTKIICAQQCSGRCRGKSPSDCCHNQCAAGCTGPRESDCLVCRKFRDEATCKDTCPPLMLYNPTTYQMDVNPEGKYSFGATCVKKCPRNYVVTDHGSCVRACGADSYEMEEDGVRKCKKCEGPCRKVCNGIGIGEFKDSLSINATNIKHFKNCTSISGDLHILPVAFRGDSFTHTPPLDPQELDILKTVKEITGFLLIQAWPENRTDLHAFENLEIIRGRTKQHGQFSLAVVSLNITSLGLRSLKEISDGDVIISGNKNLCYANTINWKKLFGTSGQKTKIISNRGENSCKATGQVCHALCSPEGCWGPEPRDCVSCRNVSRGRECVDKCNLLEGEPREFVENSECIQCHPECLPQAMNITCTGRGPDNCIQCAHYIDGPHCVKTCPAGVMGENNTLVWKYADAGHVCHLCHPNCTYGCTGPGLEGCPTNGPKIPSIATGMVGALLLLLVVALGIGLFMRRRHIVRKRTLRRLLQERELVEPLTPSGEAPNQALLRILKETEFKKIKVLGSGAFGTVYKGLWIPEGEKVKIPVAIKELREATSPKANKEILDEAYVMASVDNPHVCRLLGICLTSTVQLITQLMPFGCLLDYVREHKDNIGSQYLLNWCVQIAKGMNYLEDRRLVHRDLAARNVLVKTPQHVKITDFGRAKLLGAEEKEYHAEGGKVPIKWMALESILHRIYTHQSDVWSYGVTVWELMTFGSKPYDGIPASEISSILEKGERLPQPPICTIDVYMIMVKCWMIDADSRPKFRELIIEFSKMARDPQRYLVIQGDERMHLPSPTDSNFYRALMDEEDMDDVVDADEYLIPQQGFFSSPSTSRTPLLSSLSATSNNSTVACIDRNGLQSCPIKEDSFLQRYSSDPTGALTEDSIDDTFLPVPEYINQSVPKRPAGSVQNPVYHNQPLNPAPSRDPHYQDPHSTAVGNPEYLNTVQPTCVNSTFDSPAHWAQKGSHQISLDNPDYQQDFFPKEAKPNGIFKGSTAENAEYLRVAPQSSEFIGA

Test [2] deals with Ba/F3 EGFR-Del19/C797S (Homo sapiens, UniProt P00533, C797S, cells depend on it, form not given). Put plainly: Ba/F3 viability assay (CellTiter-Glo), DC. Format: cell-based. Particulars: anti-proliferation, read-out: BaF3 DC IC50. The gist of the method: (§2)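 Compound effects on proliferation were gauged by measuring cell viability in each engineered line and in the parental line.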
Ba/F3 EGFR-Del19/C797S, sequence (P00533 with tags, fused parts or gaps DEL746-750/C797S, form open): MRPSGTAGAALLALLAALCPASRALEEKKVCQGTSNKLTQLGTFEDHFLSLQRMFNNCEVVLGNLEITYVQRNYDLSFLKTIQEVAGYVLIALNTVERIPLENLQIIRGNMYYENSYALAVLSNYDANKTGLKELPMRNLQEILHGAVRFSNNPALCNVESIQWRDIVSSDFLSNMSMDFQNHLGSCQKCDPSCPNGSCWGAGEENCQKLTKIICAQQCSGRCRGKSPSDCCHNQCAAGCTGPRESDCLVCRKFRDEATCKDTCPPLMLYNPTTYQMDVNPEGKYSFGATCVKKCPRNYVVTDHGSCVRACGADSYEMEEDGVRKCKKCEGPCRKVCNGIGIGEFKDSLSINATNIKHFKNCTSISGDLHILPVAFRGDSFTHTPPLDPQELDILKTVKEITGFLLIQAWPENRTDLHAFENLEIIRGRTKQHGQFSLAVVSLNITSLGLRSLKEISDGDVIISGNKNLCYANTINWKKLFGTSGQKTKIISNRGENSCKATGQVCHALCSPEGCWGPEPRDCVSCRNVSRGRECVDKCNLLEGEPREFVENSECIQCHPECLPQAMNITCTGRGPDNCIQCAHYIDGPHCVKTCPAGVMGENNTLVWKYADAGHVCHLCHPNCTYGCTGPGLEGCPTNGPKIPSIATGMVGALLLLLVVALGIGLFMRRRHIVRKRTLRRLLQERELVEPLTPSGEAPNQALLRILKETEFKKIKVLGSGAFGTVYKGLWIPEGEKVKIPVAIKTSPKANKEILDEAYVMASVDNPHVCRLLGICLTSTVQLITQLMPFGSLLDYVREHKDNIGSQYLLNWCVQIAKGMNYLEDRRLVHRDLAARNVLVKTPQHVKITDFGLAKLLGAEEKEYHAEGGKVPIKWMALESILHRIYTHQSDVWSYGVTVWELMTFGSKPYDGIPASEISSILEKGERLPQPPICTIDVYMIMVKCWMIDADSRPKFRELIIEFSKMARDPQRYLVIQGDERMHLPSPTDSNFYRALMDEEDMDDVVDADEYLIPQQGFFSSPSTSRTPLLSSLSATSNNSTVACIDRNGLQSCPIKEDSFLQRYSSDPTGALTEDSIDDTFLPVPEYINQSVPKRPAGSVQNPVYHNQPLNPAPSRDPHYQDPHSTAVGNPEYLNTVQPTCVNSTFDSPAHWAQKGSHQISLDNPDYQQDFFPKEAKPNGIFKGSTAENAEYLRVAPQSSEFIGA

The target of test [3] is EGFR^L58R/T790M (Homo sapiens, UniProt P00533, L858R/T790M). In words: in vitro kinase assay (HTRF KinEASE-TK kit), LT. The following applies: kinase inhibition. It counts as biochemical.
Description: as §1
Background: In TR-FRET formats the signal depends on donor and acceptor labels being close together.

Test [4] has as its target Ba/F3 EGFR-Del19/T790M (Homo sapiens, UniProt P00533, T790M, cells depend on it, form not given). Put plainly: Ba/F3 viability assay (CellTiter-Glo), DT. Format: cell-based. Particulars: anti-proliferation, read-out: BaF3 DT IC50. In outline:
as §2
A general note: In ATP-based viability assays light output follows the ATP content of the culture.

Test [5] deals with EGFR^L858R/T790M/C^797S (Homo sapiens, UniProt P00533, C797S/L858R/T790M). Put plainly: in vitro kinase assay (HTRF KinEASE-TK kit), LTC. Format: biochemical. The following applies: kinase inhibition.
EGFR^L858R/T790M/C^797S, sequence (P00533 25-1210 T790M/C797S/L858R): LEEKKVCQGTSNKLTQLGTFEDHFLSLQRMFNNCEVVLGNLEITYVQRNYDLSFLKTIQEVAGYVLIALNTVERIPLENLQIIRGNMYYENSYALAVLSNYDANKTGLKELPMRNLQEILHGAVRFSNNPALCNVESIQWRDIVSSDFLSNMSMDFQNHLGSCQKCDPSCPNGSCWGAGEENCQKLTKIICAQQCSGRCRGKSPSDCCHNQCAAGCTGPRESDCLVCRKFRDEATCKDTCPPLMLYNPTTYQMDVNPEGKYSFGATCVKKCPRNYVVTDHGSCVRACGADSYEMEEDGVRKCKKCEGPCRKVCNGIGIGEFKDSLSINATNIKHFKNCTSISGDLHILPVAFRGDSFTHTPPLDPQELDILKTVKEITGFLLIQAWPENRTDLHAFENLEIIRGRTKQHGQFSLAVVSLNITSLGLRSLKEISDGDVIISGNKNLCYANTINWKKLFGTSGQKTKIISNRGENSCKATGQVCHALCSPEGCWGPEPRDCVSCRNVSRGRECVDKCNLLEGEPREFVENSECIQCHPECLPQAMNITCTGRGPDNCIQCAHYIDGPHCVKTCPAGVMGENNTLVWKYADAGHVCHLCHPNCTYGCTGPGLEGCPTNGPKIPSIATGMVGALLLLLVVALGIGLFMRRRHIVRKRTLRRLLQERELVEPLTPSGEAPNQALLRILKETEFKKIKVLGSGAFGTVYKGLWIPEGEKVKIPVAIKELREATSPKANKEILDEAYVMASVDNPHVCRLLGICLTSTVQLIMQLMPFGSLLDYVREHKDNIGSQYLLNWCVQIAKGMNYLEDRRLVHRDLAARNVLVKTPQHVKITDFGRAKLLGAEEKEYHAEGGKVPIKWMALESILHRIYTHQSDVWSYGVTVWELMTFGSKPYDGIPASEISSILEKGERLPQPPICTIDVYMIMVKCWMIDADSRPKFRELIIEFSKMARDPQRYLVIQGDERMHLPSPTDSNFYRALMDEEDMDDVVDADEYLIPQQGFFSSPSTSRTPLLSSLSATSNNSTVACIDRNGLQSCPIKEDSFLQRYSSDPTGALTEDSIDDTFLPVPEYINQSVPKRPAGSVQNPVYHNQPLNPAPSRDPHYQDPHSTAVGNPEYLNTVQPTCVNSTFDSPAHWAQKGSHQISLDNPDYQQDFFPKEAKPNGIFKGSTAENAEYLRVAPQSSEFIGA
Description: as §1

Test [6] concerns Ba/F3 Parental. Put plainly: Ba/F3 viability assay (CellTiter-Glo), parental. It counts as cell-based. Particulars: Mus musculus, BaF3, anti-proliferation. The gist of the method: as §2
Test [7] addresses Ba/F3 EGFR-Del19/T790M/C797S (Homo sapiens, UniProt P00533, T790M/C797S, cells depend on it, form not given). Put plainly: Ba/F3 viability assay (CellTiter-Glo), DTC. Format: cell-based. The following applies: anti-proliferation, read-out: BaF3 DTC IC50. In outline:
as §2

Ba/F3 EGFR-Del19/T790M, sequence (P00533 with tags, fused parts or gaps DEL746-750/T790M, form open): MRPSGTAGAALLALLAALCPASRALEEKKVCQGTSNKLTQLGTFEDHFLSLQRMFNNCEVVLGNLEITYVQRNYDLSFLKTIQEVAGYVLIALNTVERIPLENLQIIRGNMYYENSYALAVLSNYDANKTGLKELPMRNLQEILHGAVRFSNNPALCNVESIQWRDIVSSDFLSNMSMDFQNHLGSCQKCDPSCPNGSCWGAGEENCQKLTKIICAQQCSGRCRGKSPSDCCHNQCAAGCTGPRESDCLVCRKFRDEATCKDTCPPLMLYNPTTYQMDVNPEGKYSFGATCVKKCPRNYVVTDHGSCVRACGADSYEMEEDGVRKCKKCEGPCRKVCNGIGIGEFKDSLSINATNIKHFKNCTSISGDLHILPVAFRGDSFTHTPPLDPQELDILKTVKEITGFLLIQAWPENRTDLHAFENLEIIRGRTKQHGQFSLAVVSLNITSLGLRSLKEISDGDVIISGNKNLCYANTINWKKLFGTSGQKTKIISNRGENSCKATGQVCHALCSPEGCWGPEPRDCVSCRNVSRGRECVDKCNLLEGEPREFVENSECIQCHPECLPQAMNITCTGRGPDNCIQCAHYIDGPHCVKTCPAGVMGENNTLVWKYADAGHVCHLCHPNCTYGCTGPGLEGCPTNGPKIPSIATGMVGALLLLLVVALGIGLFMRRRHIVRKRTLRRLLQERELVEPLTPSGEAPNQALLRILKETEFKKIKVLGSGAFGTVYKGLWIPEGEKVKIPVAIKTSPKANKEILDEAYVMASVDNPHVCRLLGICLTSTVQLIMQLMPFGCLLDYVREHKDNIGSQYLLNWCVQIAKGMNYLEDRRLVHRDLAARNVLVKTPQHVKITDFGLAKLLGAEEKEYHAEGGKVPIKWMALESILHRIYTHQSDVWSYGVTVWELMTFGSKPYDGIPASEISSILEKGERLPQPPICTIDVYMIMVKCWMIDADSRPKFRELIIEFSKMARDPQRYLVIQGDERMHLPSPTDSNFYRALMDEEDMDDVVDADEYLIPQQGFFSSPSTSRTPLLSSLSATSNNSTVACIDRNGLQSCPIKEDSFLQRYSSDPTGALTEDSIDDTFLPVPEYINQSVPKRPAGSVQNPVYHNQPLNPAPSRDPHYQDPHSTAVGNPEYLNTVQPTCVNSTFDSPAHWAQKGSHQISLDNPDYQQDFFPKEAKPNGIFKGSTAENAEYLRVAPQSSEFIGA

For `C[C@H]1CCOc2c(cnn2C)-c2nccc(n2)Nc2cc3c(cn2)c(-c2ccc(CN(C)CCF)n2C)nn31` [(184), N-[[5-[(16S)-11,16-dimethyl-13-oxa-2,6,10,11,17,18,22,25-octazapentacyclo[15.5.2.1^3,7.0^8,12.0^20,24]pentacosa-1(22),3,5,7(25),8(12),9,18,20,23-nonaen-19-yl]-1-methyl-pyrrol-2-yl]methyl]-2-fluoro-N-methyl-ethanamine], the IC50 in test [1] is less than 0.01 µM; in test [3], less than 0.01 µM; in test [5], less than 0.01 µM; in test [6] it was 0.1 to 1 µM. The results for the GI50 in test [2], in test [4] and in test [7] were 0.01 to 0.1 µM, less than 0.01 µM and less than 0.01 µM, respectively.
`Cc1c(-c2nn3c4cc(ncc24)Nc2ccnc(n2)-c2cnn(C)c2OCCCC3C)cnn1CCC(C)(C)O` (stereo not drawn) [(92)]: the IC50 in test [1] was 0.01 to 0.1 µM; in test [3], less than 0.01 µM; in test [5] it was less than 0.01 µM; in test [6], 0.1 to 1 µM. The GI50 in test [2], in test [4] and in test [7] was 0.01 to 0.1 µM in each case.
Regarding `CC(C)NCc1ccc(-c2nn3c4cc(ncc24)Nc2ccnc(n2)-c2cnn(C)c2OCC[C@@H]3C)n1C` [(188)], the IC50 in test [1] is less than 0.01 µM; in test [3], less than 0.01 µM; in test [5], less than 0.01 µM; in test [6] it was 0.1 to 1 µM. The GI50 in test [2], in test [4] and in test [7] was less than 0.01 µM in each case.
Turning to `C[C@H]1CCOc2c(cnn2C)-c2nccc(n2)Nc2cc3c(cn2)c(N2CC[C@H](O)C2)nn31` [(113)], the IC50 is less than 0.01 µM in test [1], less than 0.01 µM in test [3], less than 0.01 µM in test [5] and 0.1 to 1 µM in test [6]. The GI50 in test [2], in test [4] and in test [7] was less than 0.01 µM throughout.
For `C[C@H]1CCOc2c(cnn2C)-c2nccc(n2)Nc2cc3c(cn2)c(N2CC[C@H](N(C)C)C2)nn31` [(178)], the IC50 in test [1] is 0.01 to 0.1 µM; in test [3], less than 0.01 µM; in test [5], less than 0.01 µM; in test [6], 0.1 to 1 µM. The GI50 in test [2] is 0.01 to 0.1 µM; in test [4] it was 0.01 to 0.1 µM; in test [7], less than 0.01 µM.
Regarding `CCC1CCOc2c(cnn2C)-c2nccc(n2)Nc2cc3c(cn2)c(N2CCC2)nn31` (stereo not drawn) [(5)], the 50% inhibitory concentration (IC50) in test [1] is 0.01 to 0.1 µM; in test [3] it was less than 0.01 µM; in test [5] it was less than 0.01 µM; in test [6], not below 1 µM. The GI50 in test [2], in test [4] and in test [7] was 0.01 to 0.1 µM in each case.
In the case of `C[C@H]1CCOc2c(cnn2C)-c2nccc(n2)Nc2cc3c(cn2)c(-c2ccc(CN4CCCC4)n2C)nn31` [(140)], the IC50 in test [1] is less than 0.01 µM; in test [3], less than 0.01 µM; in test [5], less than 0.01 µM; in test [6] it was 0.1 to 1 µM. Further, the GI50 in test [2], in test [4] and in test [7] was less than 0.01 µM throughout.
With `C[C@H]1CCOc2c(cnn2C)-c2nccc(n2)Nc2cc3c(cn2)c(-c2cc4c(n2C)CCCN(C)C4)nn31` [(185)], the half-inhibitory concentration (IC50) is less than 0.01 µM in test [1], less than 0.01 µM in test [3], less than 0.01 µM in test [5] and 0.1 to 1 µM in test [6]. In addition, the GI50 in test [2], in test [4] and in test [7] was 0.01 to 0.1 µM each time.
For the compound `CCN(CC)CCOc1cc(-c2nn3c4cc(ncc24)Nc2ccnc(n2)-c2cnn(C)c2OCC[C@@H]3C)ccc1Cl` [(153)], the 50% inhibitory concentration (IC50) in test [1] is less than 0.01 µM; in test [3], less than 0.01 µM; in test [5] it was less than 0.01 µM; in test [6], 0.1 to 1 µM. Besides, the GI50 in test [2], in test [4] and in test [7] was 0.01 to 0.1 µM throughout.
`Cn1ncc2c1OCCCn1nc(N3CCCC3CO)c3cnc(cc31)Nc1ccnc-2n1` (stereo not drawn) [(62)]: the IC50 in test [1] was 0.1 to 1 µM; in test [3], less than 0.01 µM; in test [5] it was less than 0.01 µM; in test [6] it was 0.1 to 1 µM. Further, the GI50 in test [2], in test [4] and in test [7] was 0.1 to 1 µM in each case.
`C[C@H]1CCOc2c(cnn2C)-c2nccc(n2)Nc2cc3c(cn2)c(-c2ccc(CN4CCN(C)CC4)cc2)nn31` [(172)]: the IC50 was less than 0.01 µM in test [1], less than 0.01 µM in test [3], less than 0.01 µM in test [5] and 0.01 to 0.1 µM in test [6]. The GI50 in test [2], in test [4] and in test [7] was less than 0.01 µM throughout.
For `C[C@H]1CCOc2c(cnn2C)-c2nccc(n2)Nc2cc3c(cn2)c(-c2ccc(CN4CCNCC4)n2C)nn31` [(119)], the IC50 in test [1] was less than 0.01 µM; in test [3], less than 0.01 µM; in test [5], less than 0.01 µM; in test [6] it was 0.1 to 1 µM. In addition, the GI50 in test [2], in test [4] and in test [7] was less than 0.01 µM each time.
As for `CCCN(C)Cc1ccc(-c2nn3c4cc(ncc24)Nc2ccnc(n2)-c2cnn(C)c2OCC[C@@H]3C)n1C` [(138)], the IC50 is less than 0.01 µM in test [1], less than 0.01 µM in test [3], less than 0.01 µM in test [5] and 0.1 to 1 µM in test [6]. Besides, the GI50 in test [2], in test [4] and in test [7] was less than 0.01 µM each time.
With `C[C@H]1CCOc2c(cnn2C)-c2nccc(n2)Nc2cc3c(cn2)c(-c2ccc(CN4CCOCC4)o2)nn31` [(164)], the IC50 in test [1] was less than 0.01 µM; in test [3], less than 0.01 µM; in test [5], less than 0.01 µM; in test [6], 0.1 to 1 µM. The values for the GI50 in test [2], in test [4] and in test [7] were 0.01 to 0.1 µM, less than 0.01 µM and less than 0.01 µM, respectively.
In the case of `C[C@H]1CCOc2c(cnn2C)-c2nccc(n2)Nc2cc3c(cn2)c(-c2ccc(CN(C)CCCF)n2C)nn31` [(192)], the IC50 in test [1] was less than 0.01 µM; in test [3], less than 0.01 µM; in test [5], less than 0.01 µM; in test [6], 0.1 to 1 µM. The GI50 in test [2], in test [4] and in test [7] was less than 0.01 µM throughout.
`Cn1ncc2c1OCCC(C)(C)n1nc(N3CCC3)c3cnc(cc31)Nc1ccnc-2n1` [(4), 19-(azetidin-1-yl)-11,16,16-trimethyl-13-oxa-2,6,10,11,17,18,22,25-octazapentacyclo[15.5.2.1^3,7.0^8,12.0^20,24]pentacosa-1(22),3,5,7(25),8(12),9,18,20,23-nonaene]: the IC50 is 0.1 to 1 µM in test [1], less than 0.01 µM in test [3], less than 0.01 µM in test [5] and not below 1 µM in test [6]. The GI50 in test [2], in test [4] and in test [7] was 0.1 to 1 µM throughout.
As for `CC1CCCOc2c(cnn2C)-c2nccc(n2)Nc2cc3c(cn2)c(N2CCC2)nn31` (stereo not drawn) [(1)], the IC50 in test [1] was less than 0.01 µM; in test [3], less than 0.01 µM; in test [5] it was less than 0.01 µM; in test [6], 0.1 to 1 µM. For the same compound, the figures for the GI50 in test [2], in test [4] and in test [7] were 0.01 to 0.1 µM, less than 0.01 µM and less than 0.01 µM, respectively.
With `CC1CCCOc2c(cnn2C)-c2nccc(n2)Nc2cc3c(cn2)c(-c2cc(CN4CCN(C)CC4)nn2C)nn31` (stereo not drawn) [(84)], the IC50 in test [1] is 0.01 to 0.1 µM; in test [3] it was less than 0.01 µM; in test [5], less than 0.01 µM; in test [6] it was 0.1 to 1 µM. Further, the GI50 in test [2] was in the range of 0.1 to 1 µM; in test [4] it was 0.01 to 0.1 µM; in test [7], 0.01 to 0.1 µM.
